Assay [1] addresses Prolyl endopeptidase (Sus scrofa, UniProt P23687). The experiment in a line: Inhibition of porcine prolyl oligopeptidase using Z-Gly-Pro-AMC as substrate after 60 mins by double-reciprocal plot analysis. The note with it: read-out: Ki(app).
Assay [2] concerns the target Prolyl endopeptidase (Mus musculus, UniProt Q9QUR6). The experiment in a line: Competitive inhibition of mouse brain prolyl oligopeptidase. The assay is classed as tissue-based.

The structures appear in SMILES notation.

Prolyl endopeptidase (Sus scrofa, UniProt P23687), sequence (P23687 whole entry): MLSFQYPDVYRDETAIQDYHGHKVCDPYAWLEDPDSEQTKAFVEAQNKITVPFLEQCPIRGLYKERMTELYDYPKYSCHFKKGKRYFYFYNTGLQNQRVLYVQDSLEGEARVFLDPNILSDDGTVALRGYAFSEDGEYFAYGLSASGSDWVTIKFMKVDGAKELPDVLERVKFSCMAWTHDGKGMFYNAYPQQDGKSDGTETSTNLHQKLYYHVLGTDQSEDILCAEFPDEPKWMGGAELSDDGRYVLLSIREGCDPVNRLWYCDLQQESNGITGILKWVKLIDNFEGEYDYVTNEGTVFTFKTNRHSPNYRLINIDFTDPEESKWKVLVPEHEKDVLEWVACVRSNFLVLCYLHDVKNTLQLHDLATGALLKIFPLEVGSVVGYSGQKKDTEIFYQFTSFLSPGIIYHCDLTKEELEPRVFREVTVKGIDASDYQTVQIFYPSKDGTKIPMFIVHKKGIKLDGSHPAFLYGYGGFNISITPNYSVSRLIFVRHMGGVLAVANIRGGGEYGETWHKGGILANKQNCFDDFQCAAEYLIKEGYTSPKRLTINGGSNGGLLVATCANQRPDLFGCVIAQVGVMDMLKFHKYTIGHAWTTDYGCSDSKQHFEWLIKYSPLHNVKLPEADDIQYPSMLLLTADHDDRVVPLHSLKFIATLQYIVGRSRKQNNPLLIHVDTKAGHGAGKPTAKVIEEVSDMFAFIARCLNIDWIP
Prolyl endopeptidase (Mus musculus, UniProt Q9QUR6), sequence (Q9QUR6 whole entry): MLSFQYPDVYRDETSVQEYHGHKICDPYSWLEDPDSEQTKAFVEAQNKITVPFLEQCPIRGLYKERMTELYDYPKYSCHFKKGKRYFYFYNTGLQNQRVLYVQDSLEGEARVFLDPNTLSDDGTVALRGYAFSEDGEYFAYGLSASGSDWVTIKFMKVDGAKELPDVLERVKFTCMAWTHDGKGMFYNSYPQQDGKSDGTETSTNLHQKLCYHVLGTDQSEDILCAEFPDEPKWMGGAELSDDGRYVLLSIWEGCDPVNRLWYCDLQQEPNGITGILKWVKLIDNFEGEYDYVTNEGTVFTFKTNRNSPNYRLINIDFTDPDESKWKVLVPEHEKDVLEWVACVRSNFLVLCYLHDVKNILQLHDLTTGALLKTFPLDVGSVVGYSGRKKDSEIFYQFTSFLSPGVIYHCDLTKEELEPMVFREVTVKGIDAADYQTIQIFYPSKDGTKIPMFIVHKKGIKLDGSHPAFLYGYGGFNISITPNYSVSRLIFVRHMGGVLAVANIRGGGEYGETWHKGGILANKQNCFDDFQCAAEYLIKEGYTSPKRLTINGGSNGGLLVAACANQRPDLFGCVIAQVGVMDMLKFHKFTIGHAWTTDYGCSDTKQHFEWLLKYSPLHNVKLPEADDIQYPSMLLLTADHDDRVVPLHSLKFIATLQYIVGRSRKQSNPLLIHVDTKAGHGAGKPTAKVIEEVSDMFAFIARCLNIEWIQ

Turning to `N#C[C@@H]1CCCN1C(=O)[C@@H]1CCCN1C(=O)CCCc1ccc(I)cc1`, at Prolyl endopeptidase [1], the Ki stood at 4.2 nM. `[11CH3]Nc1ccc(CCCC(=O)N2CCC[C@H]2C(=O)N2CCCC2)cc1`: at Prolyl endopeptidase [2], the half-inhibitory concentration (IC50) was 3.1 nM.

With `O=C([C@@H]1CCCN1C(=O)CCCc1ccc(I)cc1)N1CCCC1`, the Ki on Prolyl endopeptidase [1] was determined as 22 nM.

The values are drawn from ChEMBL document CHEMBL3232996, “Synthesis and biological evaluation of novel (123)I-labeled 4-(4-iodophenyl)butanoyl-L-prolyl-(2S)-pyrrolidines for imaging prolyl oligopeptidase in vivo” (Eur J Med Chem, 2014).
